“Also recorded” adds a separate entry of the source. Where no end group is shown, it is not given here.
T1: hSNORF44 (Homo sapiens, UniProt Q96P65)
T1 sequence (Q96P65 1-431): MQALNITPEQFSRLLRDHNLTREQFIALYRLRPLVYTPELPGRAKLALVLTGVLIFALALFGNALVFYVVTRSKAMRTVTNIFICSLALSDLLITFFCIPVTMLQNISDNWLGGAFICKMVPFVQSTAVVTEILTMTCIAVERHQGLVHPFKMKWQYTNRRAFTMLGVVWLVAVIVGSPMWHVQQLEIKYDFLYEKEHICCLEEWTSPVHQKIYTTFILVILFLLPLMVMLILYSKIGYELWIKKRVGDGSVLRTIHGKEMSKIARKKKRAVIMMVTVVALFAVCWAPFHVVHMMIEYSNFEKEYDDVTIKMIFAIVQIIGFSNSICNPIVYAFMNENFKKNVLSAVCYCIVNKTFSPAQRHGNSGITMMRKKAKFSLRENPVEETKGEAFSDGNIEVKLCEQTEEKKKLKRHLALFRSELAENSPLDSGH

T2: human SNORF44 receptor (human, UniProt Q96P65 1-431)
T2 sequence: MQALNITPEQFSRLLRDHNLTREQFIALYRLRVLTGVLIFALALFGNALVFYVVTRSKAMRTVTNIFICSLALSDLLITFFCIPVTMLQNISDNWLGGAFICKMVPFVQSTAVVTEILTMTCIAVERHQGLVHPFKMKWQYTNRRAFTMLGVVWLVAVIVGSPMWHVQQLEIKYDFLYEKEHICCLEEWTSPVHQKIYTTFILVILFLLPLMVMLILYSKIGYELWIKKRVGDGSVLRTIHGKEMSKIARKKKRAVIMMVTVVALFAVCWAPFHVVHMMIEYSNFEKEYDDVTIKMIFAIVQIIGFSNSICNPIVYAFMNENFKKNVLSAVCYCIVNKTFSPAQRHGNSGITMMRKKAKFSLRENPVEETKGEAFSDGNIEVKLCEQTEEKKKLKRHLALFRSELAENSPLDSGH


Assays:
human SNORF44 = assay: Calcium-activated Cl- currents in Xenopus laevis oocytes (voltage clamp); format: cell-based; conditions: control (uninjected) oocytes not expressing hSNORF44
Procedure: (§1) Oocytes were harvested from Xenopus laevis and injected with mRNA transcripts as previously described (Quick and Lester, 1994; Smith et al.,1997). Synthetic, full-length RNA transcripts for human SNORF44 were produced by digestion of the plasmid BN16 with HINDIII followed by transcription with T7 RNA Polymerase (“Message Machine”, Ambion). Oocytes were injected with 15 ng hSN44 receptors synthetic RNA and incubated for 3-4 days at 17 degrees. Dual electrode voltage clamp (Axon Instruments Inc.) was performed using 3 M KCl-filled glass microelectrodes having resistances of 1-2 Mohm. Unless otherwise specified, oocytes were voltage clamped at a holding potential of −80 mV. During recordings, oocytes were bathed in continuously flowing (1-3 ml/min) medium containing 96 mM NaCl, 2 mM KCl, 1.8 mM CaCl2, 1 mM MgCl2, and 5 mM HEPES, pH 7.5 (ND96 Buffer). Drugs were applied by local perfusion from a […] glass capillary tube fixed at a distance of 0.5 mm from the oocyte.
(§2) Heterologous expression of GPCRs in Xenopus oocytes has been widely used to determine the identity of signaling pathways activated by agonist stimulation (Gundersen et al., 1983; Takahashi et al., 1987). Activation of the phospholipase C (PLC) pathway is assayed by applying test compound in ND96 solution to oocytes previously injected with mRNA for the mammalian receptor and observing inward currents at a holding potential of −80 mV. The appearance of currents that reverse at −25 mV and display other properties of the Ca^++-activated Cl^− (chloride) channel is indicative of mammalian receptor-activation of PLC and release of IP3 and intracellular Ca^++.

hSNORF44 [1] = target: T1, hSNORF44; assay: Intracellular Ca2+ release (FLIPR) in transiently transfected COS-7 cells; format: cell-based; parameters: The entire coding region was then amplified by PCR from human spinal cord cDNA and subcloned into pcDNA3.1(−) for expression and functional analyses; expressed in transfected cells; host or cells: COS-7; conditions: COS-7 cells transfected with SNORF44
Procedure: (§3) A typical protocol for the DEAE-dextran method as applied to COS-7 and HEK293 cells is described as follows. Cells to be used for transfection are split 24 hours prior to the transfection to provide flasks which are 70-80% confluent at the time of transfection. Briefly, 8 μg of receptor DNA plus 8 μg of any additional DNA needed (e.g. Gα protein expression vector, reporter construct, antibiotic resistance marker, mock vector, etc.) are added to 9 ml of complete DMEM plus DEAE-dextran mixture (10 mg/ml in PBS). Cells plated into a T225 flask (sub-confluent) are washed once with PBS and the DNA mixture is added to each flask. The cells are allowed to incubate for 30 minutes at 37° C., 5% CO2. Following the incubation, 36 ml of complete DMEM with 80 μM chloroquine is added to each flask and allowed to incubate an additional 3 hours. The medium is then aspirated and 24 ml of complete medium containing 10% DMSO for exactly 2 minutes and then aspirated. The cells are then washed 2 times with PBS and 30 ml of complete DMEM added to each flask. The cells are then allowed to incubate over night. The next day the cells are harvested by trypsinization and reseeded into 96 well plates.
Cells expressing the receptor of interest are plated into clear, flat-bottom, black-walled 96-well plates (Costar) at a density of 80,000-150,000 cells per well and allowed to incubate for 48 hr at 5% CO2, 37° C. The growth medium is aspirated and 100 μL of loading medium containing Fluo-3 dye is added to each well. […]
(§4) The compounds of interest are diluted in wash buffer (Hank's BSS (without phenol red), 20 mM HEPES, 2.5 mM probenecid) to a 4× final concentration and aliquoted into a clear v-bottom plate (Nunc). […] Compounds are added to the cell plates and responses are measured using the FLIPR™ instrument. The data are then collected and analyzed using the FLIPR™ software and Graphpad Prism. […]

hSNORF44 [2] = target: T1, hSNORF44; assay: Inositol phosphate (IP) release in transfected COS-7 cells; format: cell-based; parameters: The entire coding region was then amplified by PCR from human spinal cord cDNA and subcloned into pcDNA3.1(−) for expression and functional analyses; expressed in transfected cells; host or cells: COS-7; conditions: hSNORF44-transfected COS-7 cells
Procedure: as §3, with “The medium is then aspirated and 24 ml of complete medium containing 10% DMSO for exactly 2 minutes and then aspirated. The cells are then washed 2 times with PBS and 30 ml of complete DMEM added to each flask. The cells are then allowed to incubate over night. The next day the cells are harvested by trypsinization and reseeded into 96 well plates.” left out
Human SNORF44 receptor-mediated activation of the inositol phosphate (IP) second messenger pathways were assessed by radiometric measurement of IP products.
For example, in a 96 well microplate format assay, COS-7 cells expressing the receptor of interest were plated at a density of 70,000 cells per well and allowed to incubate for 24 hours. […] 200 μL of scintillation cocktail was added to each well, and the radioactivity was determined by liquid scintillation counting.

hSNORF44 [3] = target: T1, hSNORF44; assay: Calcium-activated Cl- currents in Xenopus laevis oocytes (voltage clamp); format: cell-based; parameters: Synthetic, full-length RNA transcripts for human SNORF44 were produced by digestion of the plasmid BN16; expressed in transfected cells; host or cells: Xenopus laevis oocytes injected with synthetic RNA; conditions: oocytes injected with SNORF44 mRNA; 10 μM peptide; holding potential -80 mV
Procedure: as §1, §2

hSNORF44 [4] = assay: Intracellular Ca2+ release (FLIPR) in transiently transfected COS-7 cells; format: cell-based, human; conditions: vector-transfected cells (so in the source); data not shown
Procedure: as §3, with “The cells are then washed 2 times with PBS and 30 ml of complete DMEM added to each flask. The cells are then allowed to incubate over night. The next day the cells are harvested by trypsinization and reseeded into 96 well plates.” left out
as §4

MC3 = MC3 (Homo sapiens, UniProt P41968); conditions: Schioth et al., 1996; cited from earlier work
Chain of MC3 (P41968 whole entry): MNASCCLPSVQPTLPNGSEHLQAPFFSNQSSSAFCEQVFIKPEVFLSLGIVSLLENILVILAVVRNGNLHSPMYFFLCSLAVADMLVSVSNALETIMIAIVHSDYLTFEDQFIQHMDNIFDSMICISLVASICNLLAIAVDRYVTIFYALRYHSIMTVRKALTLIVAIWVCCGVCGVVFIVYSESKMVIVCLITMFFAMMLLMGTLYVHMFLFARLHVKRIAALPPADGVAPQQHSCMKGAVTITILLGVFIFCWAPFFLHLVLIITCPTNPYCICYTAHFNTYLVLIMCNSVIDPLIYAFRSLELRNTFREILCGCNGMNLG

human SNORF44 receptor = target: T2, human SNORF44 receptor; assay: cell-based or functional assay

Molecule	response in control oocytes (human SNORF44)	release of intracellular Ca2+ as measured by FLIPR (hSNORF44 [1])	current amplitude (Ca2+-dependent Cl- current) (hSNORF44 [3])	EC50, release of IP second messengers, COS-7 cells (human SNORF44 receptor)	other results
H-YSMEHFRW-NH2 [Peptide 1]	no response; also recorded: does not respond	concentration-dependent release of intracellular Ca^2+	1036±306 nA	–	release of IP second messengers, fold above basal (hSNORF44 [2]): approximately 10 fold
H-MGHFRF-NH2 [Peptide 2, MGHFRF-NH2]	not in control oocytes	stimulated release of intracellular Ca^2+	241±65 nA	–	–
NPFF (FLFQPQRF; ends and bridges not checked; UniProt O15130 69-76, looked up) [reference compound]	–	–	–	–	effect on intracellular Ca2+ release (hSNORF44 [4]): neither NPFF nor NPY (ligands activating the most closely related GPCRs) had any significant effect
gamma melanocortin [γ-MSH]	–	–	–	–	agonist activity at recombinant MC3 receptor (MC3): agonist
H-YGGHFRW-NH2 [Peptide 3, YGGHFRW-NH2]	not in control oocytes	stimulated release of intracellular Ca^2+	250±46 nA	–	–
NPY [reference compound]	–	–	–	–	effect on intracellular Ca2+ release (hSNORF44 [4]): neither NPFF nor NPY (ligands activating the most closely related GPCRs) had any significant effect
MGHFRF-NH2 [Peptide 2]	–	–	–	294 nM	–
YGGHFRW-NH2 [Peptide 3]	–	–	–	328 nM	–
YSMEHFRW-NH2 [Peptide 1]	–	–	–	1210 nM	release of IP second messengers, fold above basal, COS-7 cells (human SNORF44 receptor): ~10 fold

— patent US20030143670A1, “DNA encoding SNORF44 receptor” (priority 1999, published 2003)
